Calls of active or inactive are those of the source. The calls are words filed in the database; no cut-off is given here.
Key:
[1] = target: T1, Cannabinoid receptor 2 (Homo sapiens, UniProt P34972); experiment: Protean agonist activity at human CB2 receptor expressed in CHO cell membranes after 90 mins by [35S]GTPgammaS binding assay; type: functional
[2] = target: T1, Cannabinoid receptor 2; experiment: Displacement of [3H]CP55940 from human CB2 receptor expressed in CHO cell membranes after 2 hrs
[3] = target: T1, Cannabinoid receptor 2; experiment: Agonist activity at human CB2 receptor expressed in CHO cell membranes after 90 mins by [35S]GTPgammaS binding assay; type: functional
[4] = tested on: CHO; experiment: Selectivity index, ratio of Ki for human CB1 receptor expressed in CHO cell membranes to Ki for human CB2 receptor expressed in CHO cell membranes; type: cell-based
[5] = target: Cannabinoid receptor 1 (Homo sapiens, UniProt P21554); experiment: Displacement of [3H]CP55940 from human CB1 receptor expressed in CHO cell membranes after 2 hrs
[6] = target: T1, Cannabinoid receptor 2; experiment: Neutral antagonist activity at human CB2 receptor expressed in CHO cell membranes after 90 mins by [35S]GTPgammaS binding assay; type: functional
[7] = target: T1, Cannabinoid receptor 2; experiment: Inverse agonist activity at human CB2 receptor expressed in CHO cell membranes after 90 mins by [35S]GTPgammaS binding assay; type: functional
[8] = target: T1, Cannabinoid receptor 2; experiment: Antagonist activity at human CB2 receptor expressed in CHO cell membranes assessed as inhibition of HU-210 mediated-stimulation at 1 to 10 uM by [35S]GTPgammaS binding assay; type: functional
[9] = target: T1, Cannabinoid receptor 2; experiment: Neutral antagonist activity at human CB2 receptor expressed in CHO cell membranes up to 10 uM after 90 mins by [35S]GTPgammaS binding assay; type: functional
[10] = target: T1, Cannabinoid receptor 2; experiment: Inhibition of N-cycloheptyl-4-methoxy-5-methylbiphenyl-3-carboxamide maximal response at human CB2 receptor expressed in CHO cell membranes by [35S]GTPgammaS binding assay; type: functional
[11] = target: T1, Cannabinoid receptor 2; experiment: Competitive antagonist activity at human CB2 receptor expressed in CHO cell membranes assessed as inhibition of N-cycloheptyl-4-methoxy-5-methylbiphenyl-3-carboxamide-mediated receptor stimulation by [35S]GTPgammaS binding assay; type: functional

Cannabinoid receptor 1, sequence (P21554 whole entry): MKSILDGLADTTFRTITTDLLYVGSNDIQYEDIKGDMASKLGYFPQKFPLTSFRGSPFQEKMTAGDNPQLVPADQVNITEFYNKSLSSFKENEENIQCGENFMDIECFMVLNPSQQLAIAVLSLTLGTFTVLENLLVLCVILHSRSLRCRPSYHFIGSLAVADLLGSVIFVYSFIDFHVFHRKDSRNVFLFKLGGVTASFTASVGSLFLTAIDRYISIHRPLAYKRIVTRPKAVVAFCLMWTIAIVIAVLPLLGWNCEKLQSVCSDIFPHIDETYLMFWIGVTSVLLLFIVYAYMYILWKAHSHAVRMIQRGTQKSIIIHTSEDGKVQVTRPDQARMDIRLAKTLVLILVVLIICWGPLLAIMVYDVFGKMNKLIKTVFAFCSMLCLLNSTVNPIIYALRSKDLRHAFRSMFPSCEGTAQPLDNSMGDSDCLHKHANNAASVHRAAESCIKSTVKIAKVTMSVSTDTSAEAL
T1 sequence (P34972 whole entry): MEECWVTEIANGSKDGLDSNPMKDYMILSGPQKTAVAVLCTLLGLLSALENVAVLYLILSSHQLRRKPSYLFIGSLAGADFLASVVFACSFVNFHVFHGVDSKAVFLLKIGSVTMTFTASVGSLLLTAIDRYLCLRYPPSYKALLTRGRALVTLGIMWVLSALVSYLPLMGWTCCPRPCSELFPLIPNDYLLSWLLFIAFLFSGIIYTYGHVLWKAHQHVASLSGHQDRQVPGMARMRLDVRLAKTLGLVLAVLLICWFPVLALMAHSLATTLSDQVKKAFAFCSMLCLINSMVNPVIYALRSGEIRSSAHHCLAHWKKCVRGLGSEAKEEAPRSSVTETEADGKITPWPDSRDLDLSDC

Compound	Ki [2] [µM]	Selectivity Index [4]	Ki [5] [µM]	other results
C=CCc1ccc(OCCCC)c(-c2ccc(O)c(CC=C)c2)c1	–	–	–	Activity [1]: Active
C=CCc1cc(NC(C)=O)c(O)c(-c2ccc(OC)c(CC=C)c2)c1	> 10	–	–	–
COc1c(C)cc(-c2ccccc2)cc1C(=O)NC1CCCCCC1	0.148	4.5	0.656	Activity [3]: Active
C=CCc1ccc(OC)c(-c2ccc(O)c(CC=C)c2)c1	–	–	–	Activity [3]: Active
COc1ccc(-c2cc(Cc3ccc(F)cc3)c(OC)c(C(=O)NC3CCCCCC3)c2)cc1	≥ 10	–	≥ 10	Neutral antagonist activity [6]: Active
C=CCc1ccc(O)c(-c2ccc(OC)c(CC=C)c2)c1	–	–	–	Activity [3]: Active
COc1c(Cc2ccc(F)cc2)cc(-c2ccc(F)cc2)cc1C(=O)N[C@H]1CC[C@H](C)CC1	1.09	1.7	1.85	–
C=CCc1cc(NC(=O)CCCCCCCCCCCCCCCCC)c(O)c(-c2ccc(OC)c(CC=C)c2)c1	> 10	–	–	–
COc1c(Cc2ccc(F)cc2)cc(-c2ccccc2)cc1C(=O)N[C@H]1CC[C@H](C)CC1	2.62	1.2	3.09	–
C=CCc1ccc(O)c(-c2ccc(OCCCC)c(CC=C)c2)c1	0.103	–	0.615	Neutral antagonist activity [6]: Active
COc1c(Cc2ccc(F)cc2)cc(-c2ccc(F)cc2)cc1C(=O)N[C@H]1CC[C@@H](C)CC1	0.337	3.2	1.07	–
COc1c(Cc2ccc(F)cc2)cc(-c2ccc(F)cc2)cc1C(=O)NC1CCCCCC1	0.265	10.7	2.83	Activity [7]: Active
COc1c(Cc2ccccc2)cc(-c2ccccc2)cc1C(=O)NC1CCCCCC1	0.594	2.6	1.56	Activity [7]: Active
C=CCc1ccc(OC)c(-c2ccc(OC)c(CC=C)c2)c1	1.38	–	–	Activity [3]: Active
COc1c(C)cc(-c2ccc(F)cc2)cc1C(=O)NC1CCCCCC1	–	–	–	Activity [3]: Active
C=CCc1ccc(OCCCC)c(-c2ccc(OCCCC)c(CC=C)c2)c1	1.78	–	–	Neutral antagonist activity [6]: Active

Compound	Ki [2] [µM]	Selectivity Index [4]	Ki [5] [µM]	other results
COc1c(Cc2ccc(F)cc2)cc(-c2ccccc2)cc1C(=O)N[C@H]1CC[C@@H](C)CC1	1.11	1.3	0.826	–
COc1c(Cc2ccccc2)cc(-c2ccccc2)cc1C(=O)N[C@H]1CC[C@@H](C)CC1	2.67	–	–	–
COc1c(Cc2ccccc2)cc(-c2ccccc2)cc1C(=O)N[C@H]1CC[C@H](C)CC1	4.81	–	2.5	–
COc1c(Cc2ccc(F)cc2)cc(-c2ccccc2)cc1C(=O)NC1CCCCCC1	0.0841	10.7	0.904	Activity [7]: Active
CCCCc1cc(-c2ccc(F)cc2)cc(C(=O)N[C@H]2CC[C@@H](C)CC2)c1OC	1.41	1.8	2.52	–
C=CCc1cc(NC(=O)CCCCCCCCCCC)c(O)c(-c2ccc(OC)c(CC=C)c2)c1	> 10	–	–	–
CCCCc1cc(-c2ccc(OC)cc2)cc(C(=O)NC2CCCCCC2)c1OC	0.249	–	–	inhibition [8]: Active; Neutral antagonist activity [6]: Active; inhibition [9]: Active
CCCCc1cc(-c2ccc(F)cc2)cc(C(=O)N[C@H]2CC[C@H](C)CC2)c1OC	1.76	> 5.8	≥ 10	–
CCCCc1cc(-c2ccccc2)cc(C(=O)N[C@H]2CC[C@@H](C)CC2)c1OC	1.26	–	0.549	–
COc1ccc(-c2cc(Cc3ccc(F)cc3)c(OC)c(C(=O)N[C@H]3CC[C@@H](C)CC3)c2)cc1	0.196	2	0.38	inhibition [10]: inactive; inhibition [11]: Dose-dependent effect
CCCCc1cc(-c2ccccc2)cc(C(=O)NC2CCCCCC2)c1OC	0.352	5.3	1.86	Activity [7]: Active
COc1ccc(-c2cc(Cc3ccc(F)cc3)c(OC)c(C(=O)N[C@H]3CC[C@H](C)CC3)c2)cc1	0.811	1.4	1.17	–
COc1ccc(-c2cc(C)c(OC)c(C(=O)NC3CCCCCC3)c2)cc1	2.74	6.1	16.5	Neutral antagonist activity [6]: Active
C=CCc1ccc(O)c(-c2ccc(O)c(CC=C)c2)c1	–	–	–	Activity [7]: Active; Neutral antagonist activity [6]: Active
CCCCc1cc(-c2ccccc2)cc(C(=O)N[C@H]2CC[C@H](C)CC2)c1OC	2.39	–	3.61	–
CCCCc1cc(-c2ccc(F)cc2)cc(C(=O)NC2CCCCCC2)c1OC	0.166	36.8	6.11	Activity [7]: Active

From ChEMBL document CHEMBL3797038, “Synthesis and pharmacological evaluation of new biphenylic derivatives as CB2 receptor ligands” (Eur J Med Chem, 2016)
